Measurements from patent publication US11466007B2, “Substituted lactams showing serotonin 5-HT receptor activity” (Sumitomo Pharma Co., Ltd., priority 2018, dated 2022).

Test: Test 4: metabolic stability test in human hepatic microsome
Type: in vitro ADME
Settings: 0.1 mg/mL microsome, 0.1 μmol/L compound, NADPH, 37° C., 30 minutes
Procedure: Test 4: Metabolic Stability Test in Human Hepatic Microsome
The stability of the present compound in human hepatic microsome metabolism was evaluated as mentioned below. Human hepatic microsome was obtained from Xenontech. Human hepatic microsome, NADPH, and each test compound were mixed in 25 mmol/L phosphate buffer solution (pH 7.4) to reach the following concentrations as shown below, and the mixture was incubated at 37° C. for 30 minutes. • Human hepatic microsome: 0.1 mg/mL • NAPDH: 3.2 mmol/L • Test compound: 0.1 μmol/L
The residual ratio of the test compound in each sample after 30 minutes was measured by LC-MS, and the metabolic stability in human hepatic microsome was calculated from the following formula. Metabolic stability in human hepatic microsome (mL/min/mg protein)=−LN(residual ratio)/30/0.1

With `O=C1c2ncccc2CCN1CCN1CCN(c2noc3ccccc23)CC1` [Example 1, 7-{2-[4-(1,2-Benzoisoxazol-3-yl)piperazin-1-yl]ethyl}-6,7-dihydro-1,7-naphthyridin-8(5H)-one] the “Metabolic stability in human hepatic microsome” value (shortened to “Metabolic stability”) was less than 0.01 mL/min/mg protein.
For `O=C1c2ncccc2CCN1CCN1CCC(c2noc3ccc(F)cc23)CC1` [Example 5], the “Metabolic stability” value was less than 0.01 mL/min/mg protein.
In the case of `COc1cc2c(cn1)C(=O)N(CCN1CCC(c3noc4ccccc34)CC1)CC2` [Example 14], the “Metabolic stability” value is reported as less than 0.01 mL/min/mg protein.
In the case of `Cn1cnc2c1CCN(CCN1CCC(c3noc4ccccc34)CC1)C2=O` [Example 16], the “Metabolic stability” value is reported as less than 0.01 mL/min/mg protein.
In the case of `Cn1cc2c(n1)CCN(CCN1CCC(c3noc4ccccc34)CC1)C2=O` [Example 17], the “Metabolic stability” value is reported as less than 0.01 mL/min/mg protein.
In the case of `O=C1c2ncccc2CCN1CCN1CCC(c2nsc3ccccc23)CC1` [Example 26], the “Metabolic stability” value is reported as less than 0.01 mL/min/mg protein.
In the case of `Cc1noc2c1C(=O)N(CCN1CCN(c3noc4ccccc34)CC1)CC2` [Example 32, 5-{2-[4-(1,2-Benzoisoxazol-3-yl)piperazin-1-yl]ethyl}-3-methyl-6,7-dihydro[1,2]oxazolo[4,5-c]pyridin-4(5H)-one], the “Metabolic stability” value is reported as less than 0.01 mL/min/mg protein.
With `Cn1cc2c(n1)CCCN(CCN1CCC(c3noc4ccccc34)CC1)C2=O` [Example 41] the “Metabolic stability” value was less than 0.01 mL/min/mg protein.
With `Cn1cc2c(n1)C(=O)N(CCN1CCC(c3noc4ccccc34)CC1)CCC2` [Example 48] the “Metabolic stability” value was less than 0.01 mL/min/mg protein.
In the case of `Cn1ncc2c1CCN(CCN1CCN(c3nsc4ccccc34)CC1)C2=O` [Example 63], the “Metabolic stability” value is reported as less than 0.01 mL/min/mg protein.
In the case of `Cn1cc2c(n1)CCN(CCN1CCN(c3noc4ccccc34)CC1)C2=O` [Example 81], the “Metabolic stability” value is reported as less than 0.01 mL/min/mg protein.

In order of falling “Metabolic stability” value:
1. COc1cc2c(cn1)C(=O)N(CCN1CCN(c3nsc4ccccc34)CC1)CC2 [Example 2, 2-{2-[4-(1,2-Benzoisothiazol-3-yl)piperazin-1-yl]ethyl}-6-methoxy-3,4-dihydro-2,7-naphthyridin-1(2H)-one]  0.22 mL/min/mg protein
2. O=C1c2cccnc2CCN1CCN1CCN(c2nsc3ccccc23)CC1 [Example 9]  0.100 mL/min/mg protein
3. Cn1cc2c(n1)CCCN(CCN1CCN(c3nsc4ccccc34)CC1)C2=O [Example 42]  0.100 mL/min/mg protein
4. O=C1c2cncnc2CCN1CCN1CCN(c2nsc3ccccc23)CC1 [Example 58]  0.092 mL/min/mg protein
5. Cc1noc2c1C(=O)N(CCN1CCC(c3noc4ccccc34)CC1)CC2 [Example 33]  0.074 mL/min/mg protein
6. Cc1nc2c(o1)CCN(CCN1CCN(c3nsc4ccccc34)CC1)C2=O [Example 51]  0.074 mL/min/mg protein
7. Cn1ncc2c1CCCC(CCN1CCC(c3noc4ccccc34)CC1)C2=O (stereo not drawn) [Example 30]  0.065 mL/min/mg protein
8. O=c1c2ncccc2ccn1CCN1CCN(c2nsc3ccccc23)CC1 [Example 8]  0.064 mL/min/mg protein
9. CCn1ncc2c1CCN(CCN1CCN(c3nsc4ccccc34)CC1)C2=O [Example 64]  0.064 mL/min/mg protein
10. Cn1ncc2c1CCC(CCN1CCN(c3nsc4ccccc34)CC1)C2=O (stereo not drawn) [Example 29]  0.063 mL/min/mg protein
11. Cn1cc2c(n1)C(=O)N(CCN1CCN(c3nsc4ccccc34)CC1)CCC2 [Example 49]  0.063 mL/min/mg protein
12. Cc1cc2c(C3CCN(CCN4CCc5cccnc5C4=O)CC3)noc2cc1F [Example 6]  0.061 mL/min/mg protein
13. Cn1ccc2c1CCN(CCN1CCN(c3nsc4ccccc34)CC1)C2=O [Example 61]  0.056 mL/min/mg protein
14. O=C1c2oc(C3CC3)nc2CCN1CCN1CCC(c2noc3ccccc23)CC1 [Example 68]  0.056 mL/min/mg protein
15. CC1CN(CCN2CCC(c3noc4ccccc34)CC2)C(=O)c2ncccc21 (stereo not drawn) [Example 15]  0.055 mL/min/mg protein
16. O=C1c2ncccc2CCN1CCN1CCN(c2nsc3cc(F)ccc23)CC1 [Example 27]  0.048 mL/min/mg protein
17. Cc1nc2c(o1)CCCN(CCN1CCN(c3nsc4ccccc34)CC1)C2=O [Example 52]  0.043 mL/min/mg protein
18. O=C1c2ncccc2CCN1CCN1CCN(c2nsc3ccccc23)CC1 [Example 7]  0.041 mL/min/mg protein
19. Cn1ncc2c1CCCN(CCN1CCN(c3nsc4ccccc34)CC1)C2=O [Example 44]  0.04 mL/min/mg protein
20. Cn1cc2c(n1)C(=O)N(CCN1CCN(c3nsc4ccccc34)CC1)CC2 [Example 50]  0.038 mL/min/mg protein
21. Cc1nc2c(o1)C(=O)N(CCN1CCN(c3nsc4ccccc34)CC1)CC2 [Example 45]  0.032 mL/min/mg protein
22. O=c1c2ncccc2ccn1CCN1CCC(c2noc3cc(F)ccc23)CC1 [Example 12]  0.02 mL/min/mg protein
23. O=C1c2ncccc2CCC1CCN1CCC(c2noc3ccccc23)CC1 (stereo not drawn) [Example 24]  0.018 mL/min/mg protein
24. Cc1nc2c(o1)C(=O)N(CCN1CCN(c3nsc4ccccc34)CC1)CCC2 [Example 46]  0.018 mL/min/mg protein
25. O=C1c2cn(C3CC3)nc2CCN1CCN1CCC(c2noc3ccccc23)CC1 [Example 76]  0.018 mL/min/mg protein
26. Cn1ncc2c1CCC(CCN1CCC(c3noc4ccccc34)CC1)C2=O (stereo not drawn) [Example 28]  0.017 mL/min/mg protein
27. Cc1c2c(nn1C)CCN(CCN1CCC(c3noc4ccccc34)CC1)C2=O [Example 37, 5-{2-[4-(1,2-Benzoisoxazol-3-yl)piperidin-1-yl]ethyl}-2,3-dimethyl-2,5,6,7-tetrahydro-4H-pyrazolo[4,3-c]pyridin-4-one]  0.017 mL/min/mg protein
28. Cc1nc2c(o1)CCN(CCN1CCC(c3noc4ccccc34)CC1)C2=O [Example 39]  0.016 mL/min/mg protein
29. O=C1c2cncnc2CCN1CCN1CCC(c2noc3ccccc23)CC1 [Example 57]  0.013 mL/min/mg protein
30. Cn1ncc2c1CCCN(CCN1CCN(c3noc4ccccc34)CC1)C2=O [Example 80]  0.012 mL/min/mg protein
31. O=C1c2ncccc2CCN1CCN1CCC(c2noc3cc(F)ccc23)CC1 [Example 4]  0.011 mL/min/mg protein
